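Step 1: Grow cells in 96-well plates. Step 2: Expose to compound for 48 hours at 5 concentrations. Step 3: Interpolate endpoints linearly; if unreached, use highest concentration. Here, GI50 denotes the concentration required for 50% inhibition of growth.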 Active and inactive are the calls of the source. Rule as the data show it: active = GI50 up to about 1.1 µM and inactive = higher.
How the values were obtained:
Assay in all cases: inhibition of tumour cell growth, NCI panel, 48 h
[1] = test system: A498
[2] = test system: EKVX
[3] = test system: MCF7
[4] = test system: T47D
[5] = test system: TK-10
[6] = test system: MDA-N
[7] = test system: SNB-75
[8] = test system: NCI-H226
[9] = test system: NCI-H460
[10] = test system: SR
[11] = test system: SW-620
[12] = test system: OVCAR-8
[13] = test system: SF-295
[14] = test system: CCRF-CEM
[15] = test system: SK-MEL-5
[16] = test system: MDA-MB-435
[17] = test system: A549
[18] = test system: DU-145
[19] = test system: HT-29

Structure (SMILES)	GI50 [1]	GI50 [2]	GI50 [3]	GI50 [4]	GI50 [5]	GI50 [6]	GI50 [7]	GI50 [8]	GI50 [9]	GI50 [10]	GI50 [11]	GI50 [12]	GI50 [13]	GI50 [14]	GI50 [15]	GI50 [16]	GI50 [17]	GI50 [18]	GI50 [19]
CCOP(=O)(OCC)/C(C#N)=C/c1ccc(-c2ccc(F)cc2F)o1	15.1 µM (inactive)	16.3 µM (inactive)	19.7 µM (inactive)	3.3 µM (inactive)	12.6 µM (inactive)	33.7 µM (inactive)	18.5 µM (inactive)	16.5 µM (inactive)	20 µM (inactive)	15 µM (inactive)	18.7 µM (inactive)	15.2 µM (inactive)	16.4 µM (inactive)	14.6 µM (inactive)	10.6 µM (inactive)	12.6 µM (inactive)	15.3 µM (inactive)	27.2 µM (inactive)	16.5 µM (inactive)
COc1ccc(CC[N+]2(C)COc3cc4oc(=O)cc(C)c4cc3C2)cc1OC (configuration not stated)	> 100 µM (inactive)	> 100 µM (inactive)	> 100 µM (inactive)	> 100 µM (inactive)	> 100 µM (inactive)	> 100 µM (inactive)	> 100 µM (inactive)	> 100 µM (inactive)		0.0782 µM (active)	> 100 µM (inactive)	> 100 µM (inactive)	> 100 µM (inactive)	> 100 µM (inactive)	> 100 µM (inactive)	> 100 µM (inactive)	> 100 µM (inactive)	> 100 µM (inactive)	> 100 µM (inactive)
CN(C)CCOc1ccc([N+](=O)[O-])c2cccnc12	> 100 µM (inactive)		> 100 µM (inactive)	> 100 µM (inactive)	> 100 µM (inactive)	79.1 µM (inactive)	40.8 µM (inactive)	> 100 µM (inactive)	> 100 µM (inactive)	> 100 µM (inactive)	78.7 µM (inactive)	> 100 µM (inactive)	> 100 µM (inactive)	> 100 µM (inactive)	> 100 µM (inactive)	> 100 µM (inactive)	> 100 µM (inactive)	> 100 µM (inactive)	39.4 µM (inactive)
O=C1NC(=S)NC1C(Cc1ccccc1)c1ccco1 (configuration not stated)	> 100 µM (inactive)	> 100 µM (inactive)	6.76 µM (inactive)	> 100 µM (inactive)	> 100 µM (inactive)	> 100 µM (inactive)	> 100 µM (inactive)	> 100 µM (inactive)	> 100 µM (inactive)	75.3 µM (inactive)	> 100 µM (inactive)	> 100 µM (inactive)	> 100 µM (inactive)	68.2 µM (inactive)	> 100 µM (inactive)	> 100 µM (inactive)	> 100 µM (inactive)	> 100 µM (inactive)	> 100 µM (inactive)
COC(=O)[C@]12CSC[C@H]1C[C@H](c1cccc3ccccc13)N2	> 100 µM (inactive)	> 100 µM (inactive)	57.7 µM (inactive)	> 100 µM (inactive)		> 100 µM (inactive)	> 100 µM (inactive)	96.2 µM (inactive)	44.3 µM (inactive)	37.8 µM (inactive)	> 100 µM (inactive)	> 100 µM (inactive)	> 100 µM (inactive)	30.2 µM (inactive)	> 100 µM (inactive)	> 100 µM (inactive)	93.3 µM (inactive)	27.8 µM (inactive)	
Cc1cc2c(nn1)-c1ccccc1C2=O	> 10 µM (inactive)	> 10 µM (inactive)	> 10 µM (inactive)	> 10 µM (inactive)	> 10 µM (inactive)	> 10 µM (inactive)		> 10 µM (inactive)	> 10 µM (inactive)	> 10 µM (inactive)	> 10 µM (inactive)	> 10 µM (inactive)	> 10 µM (inactive)	> 10 µM (inactive)	> 10 µM (inactive)	> 10 µM (inactive)	> 10 µM (inactive)	> 10 µM (inactive)	> 10 µM (inactive)
CN(C)CCSc1cc(-c2ccccc2)c2ccccc2n1	16 µM (inactive)	15.7 µM (inactive)	13.2 µM (inactive)	15.4 µM (inactive)	7.93 µM (inactive)	10.2 µM (inactive)	4.04 µM (inactive)	16.6 µM (inactive)		13.6 µM (inactive)	6.14 µM (inactive)	19.1 µM (inactive)	12.6 µM (inactive)	10.5 µM (inactive)	1.63 µM (inactive)	10.1 µM (inactive)	13.6 µM (inactive)	15.4 µM (inactive)	5.78 µM (inactive)

Reference: ChEMBL document CHEMBL1201862, “PubChem BioAssay data set” (2004)
